Reference: PubChem BioAssay (NCI)
Several values for one entry are separate records, joined by “and”; a condition that tells them apart may be missing. Identical values can stand only once.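 Results reflect a 48-hour exposure of cells in 96-well plates to compound at five concentrations. The concentration for 50% growth inhibition is given as GI50. TGI marks complete inhibition of growth.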

What was measured:
Experiment in all cases: NCI-60 cell line screen, 48 h
SK-MEL-5 melanoma = tested on: SK-MEL-5 melanoma
OVCAR-4 ovarian = tested on: OVCAR-4 ovarian
RXF 393 renal = tested on: RXF 393 renal
SK-MEL-28 melanoma = tested on: SK-MEL-28 melanoma
SNB-19 CNS = tested on: SNB-19 CNS
HOP-92 NSCLC = tested on: HOP-92 NSCLC
OVCAR-3 ovarian = tested on: OVCAR-3 ovarian
RPMI-8226 leukemia = tested on: RPMI-8226 leukemia
SF-295 CNS = tested on: SF-295 CNS
NCI-H522 lung = tested on: NCI-H522 lung

Structure (SMILES) | GI50 (SK-MEL-5 melanoma) [µM] | TGI (SK-MEL-5 melanoma) | GI50 (OVCAR-4 ovarian) [µM] | TGI (OVCAR-4 ovarian) [µM] | GI50 (RXF 393 renal) [µM] | TGI (RXF 393 renal) [µM] | GI50 (SK-MEL-28 melanoma) [µM] | TGI (SK-MEL-28 melanoma) [µM] | GI50 (SNB-19 CNS) [µM] | TGI (SNB-19 CNS) [µM] | GI50 (HOP-92 NSCLC) [µM] | TGI (HOP-92 NSCLC) [µM] | GI50 (OVCAR-3 ovarian) [µM] | TGI (OVCAR-3 ovarian) | GI50 (RPMI-8226 leukemia) [µM] | TGI (RPMI-8226 leukemia) [µM] | GI50 (SF-295 CNS) [µM] | TGI (SF-295 CNS) [µM] | GI50 (NCI-H522 lung) [µM] | TGI (NCI-H522 lung) [µM]
COc1ccc2c(c1)c(-c1ccc(-c3cn(C)c4ccc(OC)cc34)o1)cn2C | 10.4 | 22.8 µM | 2.06 | 4.08 | 10.4 | 44 | 14 | 80.1 | 29.8 | > 100 | 1.03 | 10.3 | 8.51 | 29.3 µM | 2.25 | 5.07 | 13.4 | 62.6 | 3.42 | 10
CC(=O)OC1(C#N)CC2OC1C1N=NN(C(=O)OC(C)(C)C)C21 (configuration not stated) | – | > 31.6 µM | – | > 31.6 | – | > 31.6 | – | 35.6 | – | > 100 | – | > 31.6 | – | > 80.6 µM | – | > 100 | – | > 100 | – | > 100
CCN(CC)CCC(=O)N1C/C(=C/c2ccccc2)C(=O)/C(=C\c2ccccc2)C1 | – | 3.98 µM | – | 6.04 | – | 2.99 | – | 4.16 | – | 6.63 | – | 17 | – | 11 µM | – | 0.568 | – | 5.15 | – | 2.29
Nc1nc(CC2(O)CCCCC2)cc(-c2ccccc2)n1 | – | > 57.4 µM | – | > 76.8 | – | > 57.5 | – | > 100 | – | > 100 | – | > 71.9 | – | > 63.6 µM | – | 78.6 | – | > 77.3 | – | > 100
COc1cc2c(cc1OC)-c1ncc3cc(OC)c(OC)c(OC)c3c1C2 | 1.68 | 3.05 µM | 62.6 | > 100 | 23.2 | 85.8 | 46.7 | > 100 | 79.9 | > 100 | 15.3 | > 100 | 15.9 | 43.9 µM | 3.4 | 23.1 | 18.8 | 53.8 | 10.3 | 41.7
CCCCCCC(O)C(O)CCC(O)C1CCC(CCCCC(O)CC2=CC(C)OC2=O)O1 (configuration not stated) | – | 7.07 µM and 13.4 µM | – | 39.6 | 22.9 | 39.7 | 26 | 62.5 | 14.2 | 38.8 | 18.5 | 46.7 | 13.7 | 5.22 µM and 28.7 µM | – | 30.6 | 0.0305 | 20.1 | – | 22.8
CCCC(=O)Nc1c(I)cc(I)c(CC(CC)C(=O)O)c1I (configuration not stated) | > 100 | > 100 µM | > 100 | > 100 | > 100 | > 100 | > 100 | > 100 | > 100 | > 100 | > 100 | > 100 | > 100 | > 100 µM | > 100 | > 100 | > 100 | > 100 | > 100 | > 100
C=C(C)[C@@H]1CC[C@]2(CN)CC[C@]3(C)[C@H](CC[C@@H]4[C@@]5(C)CCC(N)[C@@](C)(CO)[C@@H]5CC[C@]43C)[C@@H]12 (some centres not stated) | 1.72 | 3.16 µM | 1.64 | 3.26 | 1.28 | 2.59 | 1.9 | 3.37 | 1.87 | 3.34 | 1.42 | 2.81 | 1.96 | 3.57 µM | 1.77 | 3.94 | 1.76 | 3.23 | 1.86 | 3.5
CC(=O)Oc1cc(Cl)c(OC(C)=O)c2c(OC(C)=O)c(C)c(O[Si](C)(C)C(C)(C)C)cc12 | – | 14.6 µM | – | 26.2 | – | 11.2 | – | 11.9 | – | 25.7 | – | 20 | – | 29.3 µM | – | 9.41 | – | 23 | – | 19
N/C(=N\N=C\c1ccc(O)c(O)c1)NO | – | > 100 µM | – | > 100 | – | > 100 | – | > 100 | – | > 100 | – | > 100 | – | > 100 µM | – | > 100 | – | > 100 | – | > 100
COc1ccc(C[C@H]2NC[C@H](O)[C@H]2OC(C)=O)cc1 | 0.0176 | 0.0585 µM | – | 0.194 | – | 0.399 | – | 0.351 | – | 0.289 | – | 0.186 | – | 0.335 µM | – | 0.332 | – | 0.0641 | – | 0.118
COC(=O)CCCNC(=O)C(=O)c1c(O)c(O)c(C(C)C)c2cc(C)c(-c3c(C)cc4c(C(C)C)c(O)c(O)c(C(=O)C(=O)NCCCC(=O)OC)c4c3O)c(O)c12 | 1.24 | 4.7 µM | 0.23 | 27 | 0.651 | 5 | 1.1 | 6.92 | 0.167 | 7.1 | 0.37 | 2.13 | 0.32 | 3.46 µM | 0.592 | > 32.5 | 0.25 | 5.22 | 0.379 | 1.9
NC(N)=NC(N)=Nc1ccc(S(N)(=O)=O)cc1 | – | > 100 µM | – | > 100 | – | > 100 | – | > 100 | – | > 100 | – | > 100 | – | > 100 µM | – | > 100 | – | > 100 | – | > 100
COc1ccc(-c2cc(-c3ccc(Cl)cc3)nc(SCCCCCCC(=O)NO)n2)cc1 | 1.14 | 2.52 µM | 2.05 | 43.1 | 1.27 | 3.69 | 2.43 | 11.7 | 1.67 | 23.6 | 1.17 | 3.67 | 1.49 | 6.85 µM | 1.12 | > 50 | 1.22 | 3.01 | 1.2 | 7.86
O=C(COC(=O)c1cccc2c(=O)c3ccccc3[nH]c12)Nc1ccc(S(=O)(=O)Nc2ncccn2)cc1 | – | > 100 µM | – | > 100 | – | > 100 | – | > 100 | – | 93.2 | – | 51 | – | 51.7 µM | – | > 100 | – | > 100 | – | 58.2
